Data taken from US8507502B2, “Fused bicyclic and tricyclic pyrimidine compounds as tyrosine kinase inhibitors” (National Health Research Institutes, priority 2008, dated 2013).
Where two headings read alike, the source gives them in different places.

Key:
GST-EGFR-KD^WT = molecular target: T1, GST-EGFR-KD^WT (Homo sapiens, UniProt P00533); experiment: EGFR kinase assay (Kinase-Glo); type: biochemical; details: 5 μM ATP, read-out: IC50 (concentration at which activity of 50% of EGFR is inhibited)
T1 construct: 50 ng GST-EGFR-KD^WT proteins; made in house

GST-EGFR-KD^L858R/T790M = molecular target: T2, GST-EGFR-KD^L858R/T790M (Homo sapiens, UniProt P00533, L858R/T790M); experiment: Double mutant EGFR kinase assay (Kinase-Glo); type: biochemical; details: 1 μM ATP, read-out: IC50 (concentration at which activity of 50% of mutant EGFR is inhibited)
T2 construct: residues from 696 to 1022 and with L858R/T790M; made in house; host or cells: Sf9 insect cells (baculovirus)

HCC827 cells = experiment: HCC827 cell viability, MTS assay; type: cell-based; details: Homo sapiens, 96-h incubation, read-out: IC50 (concentration which causes 50% of the cell death)
HCC827 = experiment: In vivo anticancer activity, lung cancer xenograft mice (injected with HCC827); set-up: species or system nude mice; details: for tumor size relative to that of the vehicle controls: days 1-5 and 8-12, 22nd day post treatment
Description: In vivo efficacy of the compounds of this invention was assessed using lung cancer xenograft mice (injected with HCC827), as described in Cancer Research 2004, 64, 4621-4628.
HCC827 cells were injected via s.c. in nude mice to form lung cancer xenograft mice. Mice bearing tumor with a size of ˜100 mm^3 were randomly assigned to two groups: a vehicle control group (10 mice), and a treatment group (21 mice). Of the treated mice, 21 received Compound 62 at a daily dosage of 5 mg/kg and 15 mg/kg via IV injection through the tail veins for 5 days/week for 2 consecutive weeks (days 1-5 and 8-12).

T2 sequence (P00533 696-1022 T790M/L858R): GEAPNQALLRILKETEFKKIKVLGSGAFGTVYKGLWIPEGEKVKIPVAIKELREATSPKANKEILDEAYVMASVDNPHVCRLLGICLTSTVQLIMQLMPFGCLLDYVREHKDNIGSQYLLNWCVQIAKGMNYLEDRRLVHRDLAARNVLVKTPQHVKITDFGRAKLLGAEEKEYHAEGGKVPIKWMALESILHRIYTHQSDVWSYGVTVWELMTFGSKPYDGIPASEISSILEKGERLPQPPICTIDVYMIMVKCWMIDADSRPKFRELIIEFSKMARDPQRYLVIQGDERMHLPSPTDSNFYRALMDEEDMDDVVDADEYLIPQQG
T1 sequence (P00533 712-979 limits assumed): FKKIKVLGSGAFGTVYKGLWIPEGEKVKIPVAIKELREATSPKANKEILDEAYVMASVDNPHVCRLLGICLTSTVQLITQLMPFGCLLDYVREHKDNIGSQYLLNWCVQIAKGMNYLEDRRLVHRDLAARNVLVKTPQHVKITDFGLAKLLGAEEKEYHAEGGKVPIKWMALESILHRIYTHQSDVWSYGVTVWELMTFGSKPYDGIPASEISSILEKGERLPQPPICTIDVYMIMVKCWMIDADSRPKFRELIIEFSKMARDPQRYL

IC50 (GST-EGFR-KD^WT) [nM]	IC50 (GST-EGFR-KD^L858R/T790M) [nM]	Structure (SMILES)	IC50 (HCC827 cells) [nM]	IC50 (GST-EGFR-KD^WT; range given in mixed units) [nM]	tumor size relative to that of the vehicle controls (HCC827; 5 mg/kg daily IV) [%]	tumor size relative to that of the vehicle controls (HCC827; 15 mg/kg daily IV) [%]	tumor growth suppression (HCC827; 5 and 15 mg/kg IV, p<0.05)
< 59	10 to 499	C=CC(=O)N1CCc2c(sc3ncnc(N[C@H](COCc4cccc(OC)c4)c4ccccc4)c23)C1 [Compound 223]	1 to 99				
< 59	500 to 2500	CN(C)C/C=C/C(=O)N1CCc2c(sc3ncnc(N[C@H](COCc4ccccn4)c4ccccc4)c23)C1 [Compound 203]	1 to 99				
< 59	500 to 2500	C=CC(=O)N1CCc2c(sc3ncnc(N[C@H](CC)c4ccccc4)c23)C1 [Compound 106]	1 to 99				
< 59	500 to 2500	C[C@@H](Nc1ncnc2sc3c(c12)CCN(C(=O)/C=C/CN(CCO)CCO)C3)c1ccccc1 [Compound 215]	1 to 99				
< 59	500 to 2500	CC#CC(=O)Nc1cccc(-c2c(-c3ccccc3)oc3ncnc(N[C@H](CO)c4ccccc4)c23)c1 [Compound 241]	1 to 99				
< 59	500 to 2500	CN(C)C/C=C/C(=O)N1CCc2c(sc3ncnc(N[C@H](COCc4ccccc4)c4ccccc4)c23)C1 [Compound 198]	1 to 99				
< 59	500 to 2500	C=CC(=O)N1CCc2c(sc3ncnc(N[C@H](CO)Cc4ccccc4)c23)C1 [Compound 193]	301 to 999				
< 59	500 to 2500	C=CC(=O)N1CCc2c(sc3ncnc(N[C@H](C)c4ccccc4)c23)C1 [Compound 64]	1 to 99				
< 59	500 to 2500	COc1cccc(COC[C@@H](Nc2ncnc3sc4c(c23)CCN(C(=O)/C=C/CN(C)C)C4)c2ccccc2)c1 [Compound 228]	1 to 99				
< 59	10 to 499	CN(C)C/C=C/C(=O)N1CCc2c(sc3ncnc(N[C@H](COCc4cccc(F)c4)c4ccccc4)c23)C1 [Compound 210]	1 to 99				
< 59	500 to 2500	C[C@@H](Nc1ncnc2sc3c(c12)CCN(C(=O)/C=C/CN(C)C)C3)c1ccccc1 [Compound 178]	1 to 99				
< 59	10 to 499	C=CC(=O)N1CCc2c(sc3ncnc(N[C@H](COCc4cccc([N+](=O)[O-])c4)c4ccccc4)c23)C1 [Compound 226]	1 to 99				
	500 to 2500	C=CC(=O)N1CCc2c(sc3ncnc(NC(CCO)c4ccccc4)c23)C1 (stereo not drawn) [Compound 188]	301 to 999	101 to 900			
< 59	500 to 2500	CN(C)C/C=C/C(=O)N1CCc2c(sc3ncnc(N[C@H](COCc4ccccc4F)c4ccccc4)c23)C1 [Compound 232]	1 to 99				
< 59	500 to 2500	C[C@@H](Nc1ncnc2sc3c(c12)CCN(C(=O)/C=C/CNC1CC1)C3)c1ccccc1 [Compound 211]	1 to 99				
< 59	500 to 2500	CCN(CC)C/C=C/C(=O)N1CCc2c(sc3ncnc(N[C@H](CO)c4ccccc4)c23)C1 [Compound 75]	1 to 99				
< 59	10 to 499	CN(C)C/C=C/C(=O)N1CCc2c(sc3ncnc(N[C@H](CO)c4ccccc4)c23)C1 [Compound 62]	1 to 99		39	23	suppressed tumor growth significantly
< 59	10 to 499	CN(C)C/C=C/C(=O)N1CCc2c(sc3ncnc(Nc4ccc(F)c(Cl)c4)c23)C1 [Compound 187]	1 to 99				
< 59	10 to 499	C=CC(=O)N1CCc2c(sc3ncnc(N[C@H](COCc4cccc(F)c4)c4ccccc4)c23)C1 [Compound 200]	1 to 99				

Structure (SMILES)	IC50 (GST-EGFR-KD^WT) [nM]	IC50 (GST-EGFR-KD^L858R/T790M) [nM]	IC50 (HCC827 cells) [nM]	IC50 (GST-EGFR-KD^WT; range given in mixed units) [nM]	tumor size relative to that of the vehicle controls (HCC827; 5 mg/kg daily IV) [%]	tumor size relative to that of the vehicle controls (HCC827; 15 mg/kg daily IV) [%]	tumor growth suppression (HCC827; 5 and 15 mg/kg IV, p<0.05)
C=CC(=O)Nc1cccc(-c2c(-c3ccccc3)oc3ncnc(N[C@H](C)c4ccccc4)c23)c1 [Compound 239]		500 to 2500	1 to 99	101 to 900			
